Assay results published in PMC2699550, “Bacterial Ortholog of Mammalian Translocator Protein (TSPO) with Virulence Regulating Activity” (PLoS ONE, 2009).

Target: T1, bacterial TSPO (P. fluorescens MF37 TSPO)
T1 construct: native protein in bacterial membranes; 438 bp fragment encoding 146 residues; theoretical 17 kDa, 37 kDa band on SDS-PAGE, apparent dimer
Experiment: [3H]-PK […] saturation binding, Scatchard, bacterial membranes
Assay type: biochemical, Pseudomonas fluorescens
Conditions: labelled compound; native membranes, 50 mM Tris-HCl pH 7.4; 0.6 to 59 nM tracer; non-specific with 30 µM PK 11195

`CCC(C)N(C)C(=O)c1cc2ccccc2c(-c2ccccc2Cl)n1` (stereo not shown) [PK 11195] showed a Kd of 0.92 nM.
